Measurements reported in ChEMBL document CHEMBL1201862, “PubChem BioAssay data set” (2004).
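Cells were grown in 96-well plates and exposed to each compound for 48 hours at five concentrations; endpoints were interpolated linearly between bracketing concentrations, or set to the highest concentration if not reached. GI50 marks 50% less growth.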 Active and inactive are the calls of the source. No stated cut-off is given here; in the data, active = GI50 up to about 1.1 µM and inactive = higher.

What was measured:
Experiment in all cases: DTP human tumour cell line panel, 48 h
[1] = tested on: MDA-MB-435
[2] = tested on: MDA-MB-231
[3] = tested on: A498
[4] = tested on: NCI-H226
[5] = tested on: UACC-62
[6] = tested on: U-251
[7] = tested on: EKVX
[8] = tested on: UO-31
[9] = tested on: TK-10
[10] = tested on: K562
[11] = tested on: RXF 393
[12] = tested on: T47D
[13] = tested on: SK-MEL-5
[14] = tested on: HCT-15
[15] = tested on: Malme-3M
[16] = tested on: HCT-116
[17] = tested on: NCI-H23
[18] = tested on: OVCAR-5
[19] = tested on: COLO 205
[20] = tested on: SNB-19
[21] = tested on: SNB-75
[22] = tested on: CAKI-1
[23] = tested on: SF-295
[24] = tested on: SF-268
[25] = tested on: MDA-N
[26] = tested on: HOP-62
[27] = tested on: KM12
[28] = tested on: SK-OV-3
[29] = tested on: Hs-578T
[30] = tested on: RPMI-8226
[31] = tested on: HT-29
[32] = tested on: SW-620
[33] = tested on: PC-3
[34] = tested on: SF-539
[35] = tested on: CCRF-CEM
[36] = tested on: NCI-H522
[37] = tested on: SK-MEL-2
[38] = tested on: OVCAR-4
[39] = tested on: HCC 2998
[40] = tested on: NCI-H460
[41] = tested on: MOLT-4
[42] = tested on: NCI/ADR-RES
[43] = tested on: A549
[44] = tested on: IGROV-1
[45] = tested on: HOP-92
[46] = tested on: HL-60
[47] = tested on: UACC-257
[48] = tested on: LOX IMVI
[49] = tested on: SK-MEL-28
[50] = tested on: SN12C
[51] = tested on: M14
[52] = tested on: OVCAR-3
[53] = tested on: 786-0
[54] = tested on: OVCAR-8
[55] = tested on: ACHN
[56] = tested on: SR
[57] = tested on: MCF7
[58] = tested on: BT-549
[59] = tested on: DU-145

## CC1(C)CCCCCCC2OC2CCCCCC(C)(C)C1=O (centres undefined)
[1]
  GI50: 35.5 µM (inactive)
[2]
  GI50: 29.9 µM (inactive)
[3]
  GI50: > 84.9 µM (inactive)
[4]
  GI50: > 56.4 µM (inactive)
[5]
  GI50: 19 µM (inactive)
[6]
  GI50: 24.3 µM (inactive)
[7]
  GI50: 60.1 µM (inactive)
[8]
  GI50: 25.5 µM (inactive)
[9]
  GI50: > 100 µM (inactive)
[10]
  GI50: 30 µM (inactive)
[11]
  GI50: 20.1 µM (inactive)
[12]
  GI50: 29.9 µM (inactive)
[13]
  GI50: 22.3 µM (inactive)
[14]
  GI50: > 89.5 µM
[15]
  GI50: > 53.8 µM (inactive)
[16]
  GI50: 35.8 µM (inactive)
[17]
  GI50: 57.7 µM (inactive)
[18]
  GI50: > 62.1 µM (inactive)
[19]
  GI50: 14.4 µM (inactive)
[20]
  GI50: > 89.3 µM (inactive)
[21]
  GI50: 28 µM (inactive)
[22]
  GI50: 20.5 µM (inactive)
[23]
  GI50: 31.2 µM (inactive)
[24]
  GI50: 50.2 µM (inactive)
[25]
  GI50: 35.8 µM (inactive)
[26]
  GI50: 49.8 µM (inactive)
[27]
  GI50: 27.8 µM (inactive)
[28]
  GI50: 69.8 µM (inactive)
[29]
  GI50: 45.1 µM (inactive)
[30]
  GI50: 32.5 µM (inactive)
[31]
  GI50: 25.9 µM (inactive)
[32]
  GI50: 52.4 µM (inactive)
[33]
  GI50: 35.1 µM (inactive)
[34]
  GI50: > 94.8 µM (inactive)
[35]
  GI50: 28.2 µM (inactive)
[36]
  GI50: 22.1 µM (inactive)
[37]
  GI50: 31.8 µM (inactive)
[38]
  GI50: 46.2 µM (inactive)
[39]
  GI50: 40.6 µM (inactive)
[40]
  GI50: 36.1 µM (inactive)
[41]
  GI50: 24 µM (inactive)
[42]
  GI50: 25.9 µM (inactive)
[43]
  GI50: 39.3 µM (inactive)
[44]
  GI50: 47.8 µM (inactive)
[45]
  GI50: 27 µM (inactive)
[46]
  GI50: 22.4 µM (inactive)
[47]
  GI50: 30.7 µM (inactive)
[48]
  GI50: > 67.8 µM (inactive)
[49]
  GI50: 65.2 µM (inactive)
[50]
  GI50: > 44.8 µM (inactive)
[51]
  GI50: 32.8 µM (inactive)
[52]
  GI50: 34.1 µM (inactive)
[53]
  GI50: 39.3 µM (inactive)
[54]
  GI50: 44.4 µM (inactive)
[55]
  GI50: 30.8 µM (inactive)
[56]
  GI50: 27.5 µM (inactive)
[57]
  GI50: 26.4 µM (inactive)
[58]
  GI50: 27.5 µM (inactive)
[59]
  GI50: > 71.1 µM (inactive)
